According to patent US6103729A, “Cathecol derivatives and a method for the preparation thereof and a pharmaceutical composition containing the same” (Cheil Jedang Corp., priority 1996, dated 2000):

Key:
[1] = target: T1, Phosphodiesterase II (Homo sapiens, UniProt O00408); test: Inhibition of phosphodiesterase activity ([3H]cAMP hydrolysis); assay type: biochemical; conditions: PDE partially purified from human U937 cells, 1.0 μM cAMP, 30° C., 20 minutes; test concentration not given
T1 construct: partially purified from human U937 cells; endogenous in cells; host or cells: U937 cells (partially purified)
T1 sequence (O00408 whole entry): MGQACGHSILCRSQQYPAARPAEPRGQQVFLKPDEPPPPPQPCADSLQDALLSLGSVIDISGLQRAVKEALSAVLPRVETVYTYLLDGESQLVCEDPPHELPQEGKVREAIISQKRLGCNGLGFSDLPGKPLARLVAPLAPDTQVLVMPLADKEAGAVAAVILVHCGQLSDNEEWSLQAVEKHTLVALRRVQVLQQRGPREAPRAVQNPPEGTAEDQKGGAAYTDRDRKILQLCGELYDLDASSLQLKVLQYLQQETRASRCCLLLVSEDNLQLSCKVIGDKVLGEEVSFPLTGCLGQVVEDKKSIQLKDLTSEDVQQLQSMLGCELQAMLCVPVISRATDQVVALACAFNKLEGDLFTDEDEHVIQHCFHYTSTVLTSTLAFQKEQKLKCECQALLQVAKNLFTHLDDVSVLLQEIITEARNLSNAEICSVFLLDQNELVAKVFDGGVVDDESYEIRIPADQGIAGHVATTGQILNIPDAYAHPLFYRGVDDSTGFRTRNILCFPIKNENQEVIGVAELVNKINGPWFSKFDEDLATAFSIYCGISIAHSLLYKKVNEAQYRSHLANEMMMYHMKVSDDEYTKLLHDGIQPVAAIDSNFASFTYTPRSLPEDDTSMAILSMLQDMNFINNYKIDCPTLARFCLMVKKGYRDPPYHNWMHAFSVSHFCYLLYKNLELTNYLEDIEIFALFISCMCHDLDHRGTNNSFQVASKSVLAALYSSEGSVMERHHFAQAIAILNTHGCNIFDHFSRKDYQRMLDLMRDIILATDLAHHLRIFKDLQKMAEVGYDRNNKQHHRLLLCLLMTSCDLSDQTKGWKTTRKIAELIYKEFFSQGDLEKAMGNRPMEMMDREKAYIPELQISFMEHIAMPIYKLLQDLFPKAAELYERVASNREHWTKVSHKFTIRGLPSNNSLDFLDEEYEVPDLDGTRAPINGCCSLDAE
Method: (§1) II. Inhibition of Phosphodiesterase IV Activity
(§2) Phosphodiesterase I, II, III, IV or V partially purified from human U937 cells, test compound of Example 1, 2 or 3 and 1.0 μM cAMP including μM [^3 H] cAMP were incubated at 30° C. for 20 minutes. The PDE reaction to convert cAMP into AMP was completed by boiling the reaction solution for 2 minutes. AMP was converted into adenosine by adding snake venom nucleotidase and incubating the reaction solution for 10 minutes. While unhydrolyzed cAMPs were bonded to AG1-X2 resin, the aqueous remaining [^3 H] adenosine was quantified by scintillation counting. The results are shown in Table II below, in which the values indicate inhibition(%) of each PDE by each test compound.

[2] = test system: Phosphodiesterase III; test: as above; assay type: biochemical; conditions: PDE partially purified from human U937 cells, 1.0 μM cAMP, 30° C., 20 minutes; test concentration not given
Method: as §1, §2

[3] = test system: Phosphodiesterase I; test: as above; assay type: biochemical; conditions: PDE partially purified from human U937 cells, 1.0 μM cAMP, 30° C., 20 minutes; test concentration not given
Method: as §1, §2

[4] = target: T2, Phosphodiesterase V (Homo sapiens, UniProt O76074); test: as above; assay type: biochemical; conditions: PDE partially purified from human U937 cells, 1.0 μM cAMP, 30° C., 20 minutes; test concentration not given
T2 construct: printed source human U937 cells (possibly human platelets in practice)
Method: as §1, §2

[5] = test system: Phosphodiesterase IV; test: as above; assay type: biochemical; conditions: PDE partially purified from human U937 cells, 1.0 μM cAMP, 30° C., 20 minutes; test concentration not given
Method: as §1, §2

[6] = test system: Wistar rats; test: Passive Cutanious Anaphylaxis (PCA); assay type: in vivo, rat; conditions: oral, female Wistar rats, evans blue read at 620 nm
Method: I. Passive Cutanious Anaphylaxis (PCA)
Hair on the back of each of the three 5 weeks old female Wistar rats were cut by clippers. Prepared mouse antiserum was diluted with 50×physiological saline solution. 0.05 ml of diluted antiserum solution was subcutaneously injected into two hair-cut sites on the back of each rat. After 3 hours, the test compounds were orally administered to the rats. After 30 minutes, 0.1% ovalbumin as antigen was mixed with 1% evans blue in the equivalent volumes and 0.1 ml of the mixture was injected in a peripheral vein of the tail of each rat. After 30 minutes, rats were sacrificed by bleeding from the abdominal arteries and their skins were stripped from the subcutaneous injection spots in uniform sizes. After immersing the stripped skins in 1.0 ml of 1.2 N KOH in 9 ml test tube and stopping the tube, a shaking incubation was performed at 37° C. for 24 hours. Then, after the mixtured solution of acetone and 0.6 N phosphoric acid (13:5) was added, the test tube was shaking-incubated for 1 hour and centrifuged to 1,700 g at 20° C. for 10 minutes. After insoluble lipids were removed from the top of the supernatant, the supernatant was measured at 620 nm. IgE was quantified by diluting the mixtured acetone-phosphoric aicd solution and drawing evans blue assay lines. The results are shown in Table I below, in which the amounts of IgE were expressed as μg/ml.

SMILES	inhibition(%) of Phosphodiesterase Type II [1] [%]	inhibition(%) of Phosphodiesterase Type III [2] [%]	inhibition(%) of Phosphodiesterase Type I [3] [%]	inhibition(%) of Phosphodiesterase Type V [4] [%]	inhibition(%) of Phosphodiesterase Type IV [5] [%]	amounts of IgE ([6]; dose 0.1 mg/rat) [µg/mL]	amounts of IgE ([6]; dose 2.0 mg/rat) [µg/mL]
COc1ccc(C(=O)Nc2n[nH]cc2C(N)=O)cc1OC1CCCC1 [Example 1, 3-(3-cyclopentyloxy-4-methoxyphenylcarboxylamido)-1H-4-pyrazolecarboxylamide]	65	68	58	89	90	4.578	4.099
COc1ccc(C(=O)Nc2nc[nH]c2C(N)=O)cc1OC1CCCC1 [Example 2]	60	67	68	61	80	3.381	2.694
COc1ccc(C(=O)Nc2ccsc2C(N)=O)cc1OC1CCCC1 [Example 3]	68	74	67	69	90	–	–
